The record followed here is patent US9150665B2, “Cellulose interpolymers and method of oxidation” (Eastman Chemical Company, priority 2003, dated 2015).

This series is described as follows: physchem. The note with it: for % Drug Solubilized: pH 3.9; for Sw/So: pH 4; for solubility: water. Here is the method:
The heterogeneous mixture was mixed well before carefully adjusting the pH with 0.1 N NaOH until the CA dissolved giving a clear solution. […] Four independent aqueous CA solutions were prepared by this process. […] The ethanol solution of each drug was then added slowly to the aqueous CA solutions previously prepared.
All of the samples were filtered thru 0.45 micron syringe filters before measurement. […] Solutions of each of the oxidized CA:drug mixtures were also prepared in 50/50 ethanol/Millipore water. […] All samples were immediately analyzed for the amount of drug in the solution using an UV-Vis Spectrophotometer.

Values after ≈ are worked out from the molar mass of the structure shown.

`CC(C)(C#N)c1cc(Cn2cncn2)cc(C(C)(C)C#N)c1` [anastrozole]: the “Sw (amount of drug solubilized)” value is reported as 1.2481 g/L/25 g of drug:CAOX, the “% Drug Solubilized” value is on record as 90%, the Sw/So stood at 1.9 and the solubility worked out at 650 µg/mL (≈ 2220 µM).
The matching figures for `N#Cc1ccc(C(c2ccc(C#N)cc2)n2cncn2)cc1` [letrozole]: 0.1461 g/L/25 g of drug:CAOX, 7%, 1.2 and 120 µg/mL (≈ 421 µM).

As usually defined, the solubility is how much of the substance goes into solution per volume. A lower solubility goes with little dissolved substance.
